In patent US9557338B2 (SIGNAL PHARMACEUTICALS, LLC, priority 2012, dated 2017):
Read-outs that look alike come from different tables or passages of the source.

How the values were obtained:
Type in all cases: cell-based
[1] = tested on: Phospho-p70S6K (T389); test: MSD assay, phospho-p70S6K (T389) in cell lysates
Method: Determination of Phospho-p70S6K (T389) in Cell Lysates.
MSD® biomarker detection assays provide a rapid and convenient method for measuring the total and phosphorylated levels of protein targets within a single small-volume sample. In the assay, an antibody for a specific protein target is coated on one electrode (or spot) per well. The samples (cell lysates) are added to the well with a solution containing the detection antibody labeled with an electrochemiluminescent (ECL) compound, MSD SULFOTAG™ label, over the course of one or more incubation periods. The total protein present in the sample binds to the capture antibodies immobilized on the working electrode surface; recruitment of the labeled detection antibody by bound phospho-p70S6K completes the sandwich. MSD Read Buffer that provides the appropriate chemical environment for ECL is added and the plate is read using an MSD SECTOR™ Imager. Inside the SECTOR Imager, a voltage is applied to the plate electrodes which cause the labels bound to the electrode surface to emit light. The instrument measures intensity of the emitted light to afford a quantitative measure of the amount of phosphorylated protein present in the sample.
Cells were plated in 96-well flat bottom plates at the required density determined for each cell line and the cells were allowed to equilibrate at 37° C., 5% CO2 overnight. The following day, the cells were treated with Compound 1 over a range of concentrations for one hour in 5% CO2 at 37° C. After the incubation period, the culture medium was removed carefully with an aspirator. The plate was placed on ice and 50 μL of 1× Tris Lysis Buffer were added to each well. The plate was placed on a shaker at 4° C. for one hour to lyse the cells. At that point, the plate was either frozen at −80° C. for later analysis or immediately assayed for phosphoproteins as described below. To monitor interassay variability, Compound 1 was compared among all plates as a reference standard.
The assay plate was incubated with 150 μL of MSD Blocking Buffer for one hour with shaking at room temperature. The plates were washed 3 times with Tris Wash Buffer. Then 35 μL of cell lysate was added to the wells and incubated for one hour with shaking at room temperature. The solution was removed from the wells and the plate was washed 3 times with wash buffer. Twenty-five microliters of the appropriate antibody solution was then incubated for one hour with shaking at room temperature. The solution was removed from the wells and the plate was washed 3 times with wash buffer. Then 150 μL of 1×MSD Read Buffer T was added to each well. The plate was read on the SECTOR Imager plate reader.

[2] = tested on: GSK-3β; test: MSD assay, GSK-3β phosphorylation in cell lysates
[3] = tested on: Phospho-GSK3β(S9); test: Luminex multiplex assay, Phospho-GSK3β(S9); details: PC3 cell line; read-out: Luminex GSK-3β
Summary of the method: (§1)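 Cells (PC3; HCT-116, MDA-MB-231 and HT29 with 500 ng/mL recombinant human IGF-I for the final 10 min) treated with compound or rapamycin over a concentration range for 1 h at 37° C, 5% CO2. Lysates read by bead-based Luminex sandwich immunoassay, 3 h at room temperature, RPE anti-rabbit detection, quantified against phosphoprotein standard curves.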

[4] = tested on: Phospho-PRAS40(T246); test: Luminex multiplex assay, Phospho-PRAS40(T246); details: PC3 cell line; read-out: Luminex PRAS40
Summary of the method: as §1

[5] = tested on: p70S6K; test: Luminex multiplex assay, p70S6K phosphorylation in cell lysates
[6] = tested on: Phospho-4E-BP1(T46); test: Luminex multiplex assay, Phospho-4E-BP1(T46); details: not inhibited up to concentrations tested; read-out: inhibition of 4E-BP1(T46) phosphorylation
Description: Determination of Phospho-GSK3β(S9), Phospho-PRAS40(T246) and Phospho-4E-BP1(T46) and the Effect of Compound 1 or Rapamycin.
The multiplex Luminex assay format differs from conventional enzyme-linked immunosorbent assay (ELISA) in that the multiplex capture antibody is attached to a polystyrene bead whereas the ELISA capture antibody is attached to the microplate well. The use of the suspension bead-based technology enables the multiplexing capabilities of the Luminex assays. The xMAP® technology uses 5.6 micron polystyrene microspheres, which are internally dyed with red and infrared fluorophores of differing intensities. Each bead is given a unique number, or bead region, allowing differentiation of one bead from another. Beads covalently bound to different specific antibodies can be mixed in the same assay, utilizing a 96-well microplate format. At the completion of the sandwich immunoassay, beads can be read, using the Luminex 100™ or Luminex 200 detection system, in single-file by dual lasers for classification and quantification of each analyte. The Akt-Pathway Phospho 5-plex kit used was custom made and includes the ability to simultaneously measure p-GSK3β (S9), p-PRAS40(T246), and p-4E-BP1(T46).
Cells were plated at the required density. The cells were treated with either Compound 1 or rapamycin over a range of concentrations for 1 hour in 5% CO2 at 37° C. Compound 1 and rapamycin were used at the same concentrations as for the proliferation assay. As for the cell proliferation assay, a reference standard was included in the assay for PC3 cells and the coefficient of variation for assay of p-GSK3β(S9) was 37.8% (n=30), p-PRAS40(T246) was 27.8% (n=30) and for p4E-BP1(T46) was 13.5% (n=4). For three cell lines (HCT-116, MDA-MB-231 and HT29) in the assay for phosphorylation of GSK3β, PRAS40 and 4E-BP1, IGF-I stimulation (500 ng/mL, recombinant human IGF-I) for the last 10 min of incubation was used. The media was aspirated from the wells and the plate was placed on ice. Then 35 μL of Lysis Buffer was added to each well and incubated on ice for at least 30 minutes. During the incubation, the standard curve for each phosphoprotein was prepared. The standards provided were reconstituted and serial dilutions were prepared according to the manufacturer's instructions. At the end of the cell lysis step, […] of the lysate was transferred to a V-bottom plate and spun at 4° C. at 2000 rpm for 5 minutes. Both the 1× Luminex bead and 1× detector antibody solutions were prepared during this time. The 1× bead solution was vortexed and 25 μL was added into each well of a black round bottom plate. Then 50 μL of the 1× detector antibody was added to each well. Fifty microliters (50 μL) of the prepared standards were added to the designated wells. Then 25 μL of the assay diluent was added to each well designated for the compound-treated cell lysates. At the end of the spin, 25 μL of cell lysate was added to the corresponding wells of the black assay plate. The assay plate was covered with the white plate lid and incubated for 3 hours at room temperature on an orbital shaker.
Approximately 10-15 minutes prior to the end of the first incubation, the secondary antibody solution was prepared according to the vendor's protocol. Goat anti-rabbit R-phycoerythrin red fluorescent protein (RPE) supplied as a 10× concentrate was diluted to generate a 1× goat anti-rabbit RPE stock. The 96-well filter plate was pre-wet with 200 μL of 1× Working wash solution. At the end of the 3 hour incubation, a multichannel pipette was used to transfer the entire contents from each assay well into the wells of the filter plate. The liquid from the wells was removed by aspiration with the vacuum manifold. Then 200 μL of 1× Working wash solution was added into each well. The wash solution was aspirated using the vacuum manifold after 15-30 seconds. This wash step was repeated one time. The bottom of the plate was blotted on clean paper towels to remove residual liquid. […]

[7] = tested on: Akt(S473); test: Inhibition of Akt(S473) phosphorylation in cell lines; details: data not shown
[8] = tested on: S6RP(S235/S236); test: Inhibition of S6RP(S235/S236) phosphorylation in cell lines; details: Homo sapiens, read-out: IC50 for inhibition of S6RP(S235/S236) phosphorylation
[9] = PC3 cell line, read-out: MSD p70S6K
[10] = PC3 cell line, read-out: MSD GSK-3β
[11] = PC3 cell line, read-out: Luminex p70S6K

SMILES | IC50 [1, 9] | IC50 [2, 10] | IC50 [3] | IC50 [4] | IC50 [5, 11] | further results
Cc1nc(-c2nnc[nH]2)ccc1-c1cnc2c(n1)N(C(C)C)C(=O)CN2 [C-69] | 80 nM | 394 nM | 342 nM | 285 nM |  | 
COC1CCC(N2C(=O)CNc3ncc(-c4ccc(C(C)(C)O)nc4)nc32)CC1 (stereo not shown) [C-15] | 82 nM | > 500 nM | 240 nM | 96 nM | 32 nM | 
CO[C@H]1C[C@@H]2CC[C@@H](C)[C@@](O)(O2)C(=O)C(=O)N2CCCC[C@H]2C(=O)O[C@H]([C@H](C)C[C@@H]2CC[C@@H](O)[C@H](OC)C2)CC(=O)[C@H](C)/C=C(\C)[C@@H](O)[C@@H](OC)C(=O)[C@H](C)C[C@H](C)/C=C/C=C/C=C/1C [rapamycin, reference compound] |  |  |  |  |  | IC50 [6]: > 10000 nM; inhibition of the phosphorylation of Akt(S473) [7]: did not inhibit; IC50 ([8]; HCT-116, HCT116 cell line): 0.029 nM; IC50 ([8]; PC-3, PC3 cell line): 0.019 nM
CCN1C(=O)CNc2ncc(-c3cnc4[nH]ccc4c3)nc21 [C-103] | > 500 nM | > 500 nM | 153 nM | 696 nM | 150 nM | 
CCn1c(=O)[nH]c2ncc(-c3ccc(-c4ncn[nH]4)c(F)c3C)nc21 [C-12] | 436 nM | > 5000 nM | 936 nM | 1120 nM | 79 nM | 
COCCN1C(=O)CNc2ncc(-c3ccc(-c4nnc[nH]4)nc3C)nc21 [A-9, 1-(2-methoxyethyl)-7-(2-methyl-6-(4H-1,2,4-triazol-3-yl)pyridin-3-yl)-3,4-dihydropyrazino[2,3-b]pyrazin-2(1H)-one] |  |  |  |  |  | IC50 ([1]; Homo sapiens, HCT-116, HCT116 cell line, IGF, read-out: MSD p70S6K (IGF)): 846 nM; IC50 ([1]; Homo sapiens, U-87 MG, U87MG cell line, read-out: MSD p70S6K): 268 nM; IC50 ([2]; Homo sapiens, HCT-116, HCT116 cell line, IGF, read-out: MSD GSK-3β (IGF)): > 2000 nM; IC50 ([2]; Homo sapiens, U-87 MG, U87MG cell line, read-out: MSD GSK-3β): > 2000 nM; IC50 ([5]; Homo sapiens, HCT-116, HCT116 cell line, IGF, read-out: Luminex p70S6K (IGF)): 103 nM; IC50 ([5]; Homo sapiens, U-87 MG, U87MG cell line, read-out: Luminex p70S6K): 37.7 nM

The next lines start with results.

IC50 [1, 9] | IC50 [2, 10] | IC50 [3] | IC50 [4] | IC50 [5, 11] | SMILES | further results
4 nM | 213 nM | 43 nM | 37 nM |  | Cc1nc(-c2nnc[nH]2)ccc1-c1cnc2c(n1)N(CCC1CCOCC1)C(=O)CN2 [C-9] | 
31 nM | 181 nM | 370 nM | 39 nM | 13 nM | CCN1C(=O)CNc2ncc(-c3ccc(-c4nnc[nH]4)nc3C)nc21 [C-54] | 
31 nM | 366 nM | 366 nM | 61 nM |  | COCCN1C(=O)CNc2ncc(-c3ccc(-c4nnc[nH]4)nc3C)nc21 [C-14] | 
1 nM | > 1.5 nM | 2 nM |  |  | COC1CCC(N2C(=O)CNc3ncc(-c4cnc(-c5ncn[nH]5)cc4C)nc32)CC1 (stereo not shown) [C-93] | 
46 nM | > 1500 nM | 255 nM | 180 nM | 30 nM | O=c1[nH]c2ncc(-c3ccc(-c4nc[nH]n4)cc3)nc2n1CCC1CCOCC1 [C-2] | 
13 nM | 152 nM | 141 nM | 43 nM | 3 nM | COC1CCC(N2C(=O)CNc3ncc(-c4ccc(-c5nnc[nH]5)nc4C)nc32)CC1 (stereo not shown) [C-16] | 
